Results reported in patent US20210269661A1, “INK COMPOSITIONS” (HEWLETT-PACKARD DEVELOPMENT COMPANY, L.P., priority 2018, published 2021).

assay: Partition coefficient of organic co-solvents (log P 1-octanol/water); settings: not given
Description: The hydrophilicity of the organic co-solvent can be quantified as a partition coefficient. As used herein, “partition coefficient” refers to a concentration ratio of a compound in an equilibrium mixture of two immiscible phases, and can be a measure of the difference in solubility of the compound in the two immiscible phases. Formula I provides an equation of quantifying the hydrophilicity of the organic co-solvents of the present disclosure, as follows: […]

| SMILES | Partition Coefficient (log P1-octanol/water) |
| --- | --- |
| O [water] | −0.825 |
| CC1(C)NC(=O)NC1=O [5,5-dimethyl hydantoin] | −0.40 |

Second part, the compound after the results:

| Partition Coefficient (log P1-octanol/water) | SMILES |
| --- | --- |
| −1.00 | OCCOCCOCCO [triethylene glycol] |
| 2.34 | CCCCCCCCO [Ink 1-octanol, 1-octanol] |
| −0.40 | O=C1CCCN1CCO [N-(2-hydroxyethyl)-2-pyrrolidinone] |
| −1.39 | CC1(C)C(=O)N(CCO)C(=O)N1CCO [di-(2-hydroxyethy)-5,5-dimethylhydantoin] |

same assay, conditions: equilibrium mixture of 1-octanol and water

| SMILES | Partition Coefficient (log P1-octanol/water) |
| --- | --- |
| O=C1CCCN1 [2-pyrrolidone] | −0.10 |
| CCC(CO)(CO)CO [ethylhydroxy propanediol] | −0.50 |
